Measurements from PubChem BioAssay AID463107 (The Scripps Research Institute Molecular Screening Center, 2010).

Target: Sphingosine 1-phosphate receptor 4 (Homo sapiens) (UniProt O95977)
Assay: S1P4 receptor agonists, human, late-stage follow-up, cell-based, fluorescence, synthesized compounds (AID 463107)
Settings: S1P4 cell-based agonist assay; call rule not given here

Chain of Sphingosine 1-phosphate receptor 4 (Homo sapiens) (O95977 whole entry, looked up): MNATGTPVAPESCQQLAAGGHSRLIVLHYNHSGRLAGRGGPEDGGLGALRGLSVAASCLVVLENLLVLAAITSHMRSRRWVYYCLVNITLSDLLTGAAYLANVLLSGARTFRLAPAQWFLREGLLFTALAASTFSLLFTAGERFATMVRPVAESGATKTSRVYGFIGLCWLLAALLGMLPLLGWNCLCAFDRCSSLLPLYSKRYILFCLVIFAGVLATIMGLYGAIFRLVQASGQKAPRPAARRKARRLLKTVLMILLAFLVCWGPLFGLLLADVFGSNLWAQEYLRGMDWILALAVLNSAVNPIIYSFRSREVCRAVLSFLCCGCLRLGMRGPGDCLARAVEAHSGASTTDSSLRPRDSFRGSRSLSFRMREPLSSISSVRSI

EC50, active:
Cc1ccc(OCCOc2c(Cl)cc(Cl)cc2Cl)c([N+](=O)[O-])n1 570 nM
COc1ccc(OCCOc2ccc(C)nc2[N+](=O)[O-])c(Cl)c1 3900 nM
Cc1ccc(OCCOc2ccc(Cl)cc2Cl)c([N+](=O)[O-])n1 162 nM
FCc1ccc(OCCOc2ccc(Cl)cc2Cl)c(Cl)n1 45.5 nM
Cc1ccc(OCCOc2ccc(Cl)cc2Cl)c(Br)n1 52 nM
Cc1ccc(OCCOc2ccc(C)nc2[N+](=O)[O-])c(C)c1 7200 nM
Clc1ccc(OCCOc2ccc(Br)nc2Br)c(Cl)c1 46.3 nM
